# Laboratory results taken from US20080070917A1, “METHODS FOR ADMINISTERING LEVOSIMENDAN” (priority 2005, published 2008).
# Where two headings read alike, the source gives them in different places.
# What was measured:
# [1] = system: patients with New York Heart Association functional class II to III heart failure; assay: Double-blind, placebo-controlled study of a 24-hour levosimendan infusion in heart failure patients; type: in vivo, human
# Experimental: A double-blind, placebo-controlled, parallel group, single center study in patients with New York Heart Association functional class II to III heart failure was conducted. Patients were randomised in 1:1 ratio to receive either levosimendan or placebo. Study drug administration was initiated with a loading dose of 12 μg/kg of levosimendan or placebo delivered over 10 minutes. This was followed by a continuous infusion of 0.1 μg/kg/min for 50 minutes. If the dose was well tolerated the infusion rate was increased to 0.2 μg/kg/min for a further 23 hours. After the study drug was started, the hemodynamic assessments were repeated at 30 minutes, at two and six hours. The non-invasive hemodynamic assessments were repeated at 24-hours. Follow-up visits took place at 2, 3, 5, 7, 9 and 14 days from the beginning of the study. On these visits echocardiographic measurements were performed and blood pressure and heart rate were measured.
# An Acuson Sequoia ultrasound system with 2.5-3.75 MHz probes was used for the Doppler echocardiographic measurements. Blood flow velocity curves were recorded at a sweep speed of 100 mm/s. Left ventricular ejection fraction was assessed by two-dimensional apical two- and four-chamber views with use of modified Simpson rule. Mitral flow velocity was assessed by pulsed wave Doppler from the apical four-chamber view by placing a 3-mm sample volume between the tip of the mitral leaflets in diastole. The following measurements were made over five consecutive cycles: maximal early and maximal late diastolic velocity and their ratio, duration of the late diastolic velocity wave, deceleration time and deceleration rate of early diastolic velocity. Peak velocities were defined as the highest point of the spectrum.
# Blood samples (4 ml) for natriuretic peptide (NT-proANP, NT-proBNP) measurements were taken into pre-cooled EDTA tubes. Samples were taken at baseline (0-sample) and on the first study day 30 min, 2 h, 6h and 24 h after the start of the infusion and in the mornings of days 2, 3, 5, 7, 9 and 14 after the start of the study drug infusion.
# [2] = system: CHF patients; assay: PK-PD meta-analysis (NONMEM, Emax model) of eight studies in CHF patients; type: in vivo, human; details: for EC50: Homo sapiens, effective concentration (composite of levosimendan, OR-1855, OR-1896)
# Experimental: Data from eight studies (Studies 300102, 300103, 300105, 3001022, 3001024, 3001040, 3001058 (Group 1 and 2) and 3001058 (Group 4)) (335 CHF patients) were combined to generate the PK-PD dataset. Dose regimens included infusions of various doses (0.25-70.6 mg) and infusion durations (5 min-7 days), with or without an initial loading dose. In addition to plasma concentration-time data the PD variables utilized in the PK-PD evaluation were PCWP, CI, HR, SBP, and DBP.
# Population PK models were built using a non-linear mixed-effect population modelling approach with the NONMEM software. The sequence of modelling was such that levosimendan PK was modelled first. Then the levosimendan portion of the full PK model was fixed, and individual PK parameters were carried forward in order to simultaneously model the metabolites PK. In the PK model it was assumed that levosimendan is fully metabolized to OR-1855, which is further metabolized to OR-1896. A gut compartment with first-order input from the levosimendan compartment and first-order output to the OR 1855 compartment was incorporated to account for the considerable delay between levosimendan elimination and metabolite appearance. This delay represents transport of levosimendan from plasma to gut and further transit to colon, metabolism of levosimendan to OR-1855 in the colon, and the subsequent absorption of OR-1855 from the colon. Elimination of the metabolites and inter-conversion between the two metabolites were modelled as first-order processes (See, FIG. 1). A mixture model allowing different inter-conversion rates for slow and rapid acetylators was beneficial in describing the data.
# Covariates (fixed effects) such as demographic characteristics and patient attributes, for e.g. ejection fraction (EF), New York Heart Association classification (NYHA), serum bilirubin, and creatinine clearance etc. were tested individually in a stepwise method. The intra-subject effects or residual error was modelled as additive, proportional (constant coefficient of variation) or combination of the two for the PK model. The inter-subject effects were modelled as exponential error model.
# The full PK models for levosimendan and its metabolites were fixed for the PD modelling. For each individual, plasma concentrations were calculated using the post-hoc PK parameter estimates for that individual. A maximal drug effect (Emax) model described by the following general equation was used to describe the relation between the estimated concentrations of drug and metabolites, and effect. E=Emax*Ceff/(EC50+Ceff) • Where: Ceff is the apparent effective concentration in the hypothetical effect compartment that may be a composite of drug and metabolite concentrations; EC50 is the effective concentration required to achieve 50% of Emax.
# The equilibration rate constant (ke0) controls the time delay between the time courses of levosimendan concentration in the central compartment (Cp) and levosimendan concentration in the effect compartment (Clevo), and is expressed as dClevo/dT=ke0·(Cp−Clevo).
# The contributions of the drug and the metabolites to the PD effects were modeled using a competitive agonist model that assumed same efficacy (Emax), but different potencies (EC50) for different compounds. A potency factor (RP) accounted for differences in potency and protein binding relative to levosimendan. […] Ceff=Clevo+RP1·COR-1855+RP2·COR-1896
# Where RP1 and RP2 are the potencies of OR-1855 and OR-1896 relative to levosimendan, respectively.
# The drug response was modelled as the absolute change from baseline and as the fractional change from baseline. The non-drug response was modelled either as a time dependent function or as an instantaneous response based on the following equations.
# Where SSS is the maximum non-drug-related response. The exponent “a” represents the rate of onset of the non-drug response over time. […]
# [3] = Unbound plasma fraction; type: in vitro ADME
# [4] = system: subjects hospitalized with acute decompensation of heart failure; assay: Phase 3, double-blind, placebo-controlled study in acute decompensation of heart failure (Example 5); type: in vivo, human
# Experimental: This was a Phase 3, double-blind, placebo-controlled, parallel-group study in subjects hospitalized with a primary or secondary admitting diagnosis of acute decompensation of heart failure. The treatment period was up to 24 hours for each subject with at least 90 days follow-up after the start of the study drug infusion. All baseline medications (including use of beta-blockers and other medications) were recorded for each patient. The study evaluated hospitalized subjects (n=600) with a primary or secondary admitting diagnosis of worsening heart failure, with symptoms at rest despite treatment with IV diuretic therapy. […] Infusion rates for background therapy of continuous IV diuretics, inotropes and vasodilators had to have been unchanged for at least two hours prior to the baseline evaluation. Left ventricular ejection fraction (EF) was required to be less than or equal to 35% as assessed within the previous 12 months. Subjects were randomized to either levosimendan (n=299) or placebo (n=301) in addition to standard-of-care. Levosimendan treatment was initiated with a total loading dose of […] administered over 10 minutes (6 mg/kg for subjects on concomitant IV vasodilators or inotropes at the start of the study drug infusion) followed by a continuous infusion of […] for the following 50 minutes. If the dose was well tolerated, the infusion rate was increased to 0.2 mg/kg/min for a further 23 hours. If the higher dose was not well tolerated it was reduced to […] and then further to 0.05 mg/kg/min if required. On completion of 24 hours the infusion is turned off abruptly.
# The primary objective of this study was to compare the efficacy between levosimendan and placebo treatments using the clinical composite endpoint (CCE) incorporating a subject reported PGA at 6 hours, 24 hours and Day 5, combined with clinical criteria for worsening heart failure through 5 days after the start of study drug infusion. In contrast to REVIVE I, the was CCE included a PGA at 6 hours as part of the primary endpoint and diuretics at any time during the 5 day assessment period were included as rescue therapy.
# Episodes of worsening heart failure treated with a rescue therapy were collected during the initial hospitalization until Day 5 or discharge whichever was later. Safety parameters such as adverse events (AEs), HR, […] (BP), routine laboratory tests, and ECG were monitored frequently up to 31 days, with hospitalization and mortality extended to 90 days after start of study drug infusion. Survival was monitored for all randomized subjects from Day 90 until the last subject underwent the final scheduled visit.
compound,measurement,setting,value
"C[C@@H]1CC(=O)NN=C1c1ccc(NN=C(C#N)C#N)cc1 [levosimendan, (−)-enantiomer of [[4-(1,4,5,6-tetrahydro-4-methyl-6-oxo-3-pyridazinyl)phenyl]hydrazono]propanedinitrile]",Maintenance of beneficial hemodynamic and neurohormonal effects,[1]; after levosimendan administration,up to two weeks
same,Time of lowest echocardiographically estimated PCWP,[1]; after starting the infusion,2 days
same,Day of lowest plasma NT-proANP level,"[1]; human, in vivo",3 days
same,Day of lowest plasma NT-proBNP level,"[1]; human, in vivo",2 days
same,"Duration of treatment effect on NT-proANP, linear model","[1]; human, in vivo",16 days
same,"Duration of treatment effect on NT-proBNP, linear model","[1]; human, in vivo",12 days
same,Time of highest CO value estimated by echocardiography,"[1]; human, in vivo",at the end of the 24-hour infusion
same,EC50,"[2]; read-out: Post-hoc Mean EC50, CI",0.09 µg/mL
same,EC50,"[2]; read-out: Post-hoc Mean EC50, DBP",0.154 µg/mL
same,EC50,"[2]; read-out: Post-hoc Mean EC50, HR",0.198 µg/mL
same,EC50,"[2]; read-out: Post-hoc Mean EC50, PCWP",0.0511 µg/mL
same,EC50,"[2]; read-out: Post-hoc Mean EC50, SBP",0.047 µg/mL
same,"Post-hoc Mean Emax, CI",[2]; baseline mean 2.21,1.15 L/m^2/min
same,"Post-hoc Mean Emax, PCWP",[2]; baseline mean 20.8,−7.8 mmHg
same,"Post-hoc Mean Emax, DBP",[2]; baseline mean 71,−13.3 mmHg
same,"Post-hoc Mean Emax, HR",[2]; baseline mean 76,18 Bpm
same,"Post-hoc Mean Emax, SBP",[2]; baseline mean 118,−7.1 mmHg
same,Unbound plasma fraction,[3],0.025
same,Proportion of patients reporting moderate to marked improvement in dyspnea,"[4]; at 6 hours (91/299), placebo/SOC 25.2%",30.4%
same,Improvement in self assessment (PGA) compared to placebo/SOC,"[4]; beta-blocked patients, over the first 5 days, p=0.001",significantly greater improvement
same,Improvement in self assessment (dyspnea) compared to placebo/SOC,"[4]; over the first 5 days, p=0.018",significantly greater improvement
same,Proportion of patients reporting moderate to marked improvement in PGA,"[4]; overall population, at 6 hours (85/299), placebo/SOC 23.9%",28.4%
same,Improvement in PGA compared to placebo/SOC,"[4]; overall population, over 5 days, p=0.002",significantly greater improvement
same,Difference in PGA improvement compared to placebo/SOC,[4]; patients not receiving beta-blocker therapy (n=96),not statistically significant
same,Difference in dyspnea improvement between treatment groups,"[4]; patients not receiving beta-blocker therapy, first 5 days",not statistically significant
same,Proportion reporting moderate to marked improvements in dyspnea compared to placebo/SOC,"[4]; patients receiving a beta-blocker at baseline, at 6 hours",greater proportion
same,Proportion of patients reporting moderate to marked improvements in PGA,"[4]; patients receiving a beta-blocker at baseline, at 6 hours, placebo/SOC 34%",44%
same,Improvement in dyspnea compared to placebo/SOC,"[4]; patients receiving beta-blockers, over the first 5 days, p=0.0016",significantly greater improvement
same,"Other secondary endpoints, except 90-day mortality",[4]; versus placebo,trended in favor of levosimendan but did not reach statistical significance
